Measured values: patent US20250034151A1, “WEE1 INHIBITOR, PREPARATION THEREFOR, AND USE THEREOF” (JIANGSU TASLY DIYI PHARMACEUTICAL CO., LTD., priority 2022, published 2025)

Tests used:
[1] = test system: MIA PaCa2 cells; test: Anti-proliferative effect on MIA PaCa2 cells by Cell Titer-Glo; assay type: cell-based; details: Homo sapiens, MIA PaCa-2, 72 h, 3 days, read-out: MIA PaCa 2 (IC50, inhibition of proliferation in vitro)
How it was run: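 Cells exposed to graded compound concentrations for 3 days at 37° C, 5% CO2, final DMSO 0.2%; viability read by CellTiter-Glo luminescence. Inhibition normalised to untreated cells (max) and medium (min); IC50 fitted by variable-slope log(inhibitor)-response model.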

[2] = Plasma protein binding (PPB), equilibrium dialysis; assay type: in vitro ADME; details: mouse plasma, 5 h dialysis
From the text: 1. Experimental Procedure
2. Data Processing and Parameter Calculation

[3] = Pharmacokinetics on single dose in mice (intravenous and oral); assay type: in vivo, ICR mice; details: for F/%: Oral 10 mg/kg vs Intravenous 1 mg/kg; for AUC(0-t) / Cmax / MRT / half-life: male, ICR, mouse, plasma
Method: 1. Experimental Aim: The present experiment aimed to obtain the pharmacokinetic profile of the subject compounds in ICR mice (both intravenous and oral) 3.1.2 Test System Species: SPF grade male ICR mice Body weight/weekly age: about 30 g 4. […] 4.2 Subjects Given (Route) Intravenous: 1 mg/kg in a volume of 5 mL/kg Gavage: 10 mg/kg in a volume of 10 mL/kg Ultrasound for 5 min before administration 4.3 Subject Preparation (Concentration) Intravenous: 0.2 mg/mL Gavage: 1 mg/mL Fast overnight before administration and feed four hours after administration. […] The blood samples were stored in a refrigerator at or below −20° C. for LC-MS/MS analysis. […] LC-MS/MS Analytical Detection Used 5. Data Processing The samples were detected for drug concentration at each time point by LC-MS/MS. Pharmacokinetic parameters terminal elimination half-life (t1/2), area under the curve (AUC), apparent volume of distribution (Vd), clearance (CL), mean residence time (MRT), and Cmax were calculated using the non-compartmental model of Phoenix WinNonlin 5.2. Bioavailability (F %) was directly from serum concentration results. Mean±standard deviation (X±SD) was used for blood concentration and pharmacokinetic parameters, etc. Specific testing and analytical methods were specified in the form of protocol revisions.

[4] = Membrane permeability study (Caco-2); assay type: in vitro ADME; details: human; for Papp A→B at 90 min, 10 µM / Papp B→A at 90 min, 10 µM: pH 7.4, Caco-2, 10 μM; for Papp A→B at 90 min, 10 µM: apical to basolateral; for Papp B→A at 90 min, 10 µM: basolateral to apical
Method: Caco-2 cells were purchased from the […] (Rockville, MD). The cell culture medium was modified Eagle's medium (MEM) containing 10% inactivated fetal bovine serum and 1% non-essential amino acids.
The cells were incubated for 21-28 days after inoculation for transport experiments and the apparent permeability (Papp) of Lucifer Yellow was used to characterize and verify the compactness of the cell monolayer. […] A 10 μM working solution of the compound to be tested was added to the apical side and basolateral side of Caco-2 and incubated at 37° C. for 90 min. After the incubation, dilute the samples on the apical side and basolateral side, and the concentrations of compounds on the apical and basolateral sides were detected by LC-MS/MS, and the concentrations of the compounds were quantified by standard curve.

[5] = test system: H1299 cells; test: Anti-proliferative effect on H1299 cells by Cell Titer-Glo; assay type: cell-based; details: Homo sapiens, NCI-H1299, 72 h, 3 days, read-out: H1299 (IC50, inhibition of proliferation in vitro)
How it was run: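 H1299 cells exposed to compound dilutions for 3 days at 37 °C, 5% CO2, final DMSO 0.2%. Viability read by CellTiter-Glo luminescence, normalised to untreated-cell (max) and medium (min) controls. IC50 from a variable-slope log(inhibitor) vs. response fit.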

[6] = target: CYP2C9 (Homo sapiens, UniProt P11712); test: in vitro; details: CYP2C9 enzyme, pH 7.4, probe BOMCC (0.01 mM)
Chain of CYP2C9 (P11712 whole entry, species assumed): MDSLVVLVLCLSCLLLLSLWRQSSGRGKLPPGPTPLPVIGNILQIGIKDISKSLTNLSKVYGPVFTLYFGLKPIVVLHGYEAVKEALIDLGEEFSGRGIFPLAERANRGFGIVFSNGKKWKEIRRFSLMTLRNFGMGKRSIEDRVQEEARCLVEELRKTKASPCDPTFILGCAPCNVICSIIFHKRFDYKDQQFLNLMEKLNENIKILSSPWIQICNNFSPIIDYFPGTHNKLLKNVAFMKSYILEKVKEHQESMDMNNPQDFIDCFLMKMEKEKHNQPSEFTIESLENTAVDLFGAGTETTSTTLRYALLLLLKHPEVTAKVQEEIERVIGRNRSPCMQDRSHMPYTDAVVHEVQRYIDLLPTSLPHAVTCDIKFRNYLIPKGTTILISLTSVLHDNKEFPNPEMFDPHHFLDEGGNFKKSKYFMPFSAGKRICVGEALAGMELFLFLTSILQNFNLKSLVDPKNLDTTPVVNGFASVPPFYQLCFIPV

inhibition at 30 min, 1 µM [6]	inhibition at 30 min, 10 µM [6]	SMILES	IC50 [1]	fraction unbound at 5 h, 1 µM [2]	F/% [3]	AUC(0-t) ([3]; Intravenous, 1 mg/kg)	Cmax ([3]; Intravenous, 1 mg/kg)	MRT ([3]; Intravenous, 1 mg/kg)	half-life ([3]; Intravenous, 1 mg/kg)	AUC(0-t) ([3]; Oral, 10 mg/kg)	Cmax ([3]; Oral, 10 mg/kg)	MRT ([3]; Oral, 10 mg/kg)	half-life ([3]; Oral, 10 mg/kg)	efflux ratio at 90 min, 10 µM ([4]; Caco-2, pH 7.4)	Papp A→B at 90 min, 10 µM [4]	Papp B→A at 90 min, 10 µM [4]	IC50 [5]
		C=CCn1c(=O)c2cnc(Nc3ccc(N4CC5CC(C4)N5C)cc3)nc2n1-c1cccc(C(C)(C)O)n1 [Compound 27]	100 to 1000 nM	0.141	28.6%	134 ng·h/mL	170 ng/mL	39.6 min	46.8 min	285 ng·h/mL	392 ng/mL	66 min	61.8 min	17.4	3.07 ×10⁻⁶ cm/s	53.5 ×10⁻⁶ cm/s	100 to 1000 nM
15.4%	6.4%	C=CCn1c(=O)c2cnc(Nc3ccc(N4CCN(C)CC4)cc3)nc2n1-c1cccc(C(C)(C)O)n1 [AZD1775]	100 to 1000 nM	0.087	32%		250 ng/mL		30 min						15.6 ×10⁻⁶ cm/s	39.8 ×10⁻⁶ cm/s	100 to 1000 nM
